Laboratory results published in PubChem BioAssay AID1918998 (Molecular Pharmacology Branch, DTP, NCI, 2023).
One block for each compound: values may come before it.

System: 521955-158-R2-J5-PDC complex spheroid growth
Test: Anticancer human tumor 521955-158-R2-J5-PDC patient-derived pancreatic carcinoma cell line growth inhibition [AhR]
Conditions: for IC50: curve of first compound; for viability, T/C: stronger effect = lower value
Summary of the method: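 Spheroids combined tumor cells with HUVEC endothelial cells and human MSCs as stroma. AhR antagonists were paired with standard or investigational drugs, each dosed in half-log steps down from near clinical Cmax, or from 10 microM where Cmax was unknown.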

[1] = second compound 0.1 µM, first compound 0.0316 µM
[2] = second compound 0.1 µM, first compound 0.1 µM
[3] = second compound 0.1 µM, first compound 0.316 µM
[4] = second compound 0.1 µM, first compound 1 µM
[5] = second compound 0.316 µM, first compound 0.0316 µM
[6] = second compound 0.316 µM, first compound 0.1 µM
[7] = second compound 0.316 µM, first compound 0.316 µM
[8] = second compound 0.316 µM, first compound 1 µM
[9] = second compound 1 µM, first compound 0.0316 µM
[10] = second compound 1 µM, first compound 0.1 µM
[11] = second compound 1 µM, first compound 0.316 µM
[12] = second compound 1 µM, first compound 1 µM
[13] = second compound 3.16 µM, first compound 0.0316 µM
[14] = second compound 3.16 µM, first compound 0.1 µM
[15] = second compound 3.16 µM, first compound 0.316 µM
[16] = second compound 3.16 µM, first compound 1 µM
[17] = second compound 10 µM, first compound 0.0316 µM
[18] = second compound 10 µM, first compound 0.1 µM
[19] = second compound 10 µM, first compound 0.316 µM
[20] = second compound 10 µM, first compound 1 µM
[21] = second compound 0.1 µM, first compound 0.00949 µM
[22] = second compound 0.1 µM, first compound 0.03 µM
[23] = second compound 0.1 µM, first compound 0.0949 µM
[24] = second compound 0.1 µM, first compound 0.3 µM
[25] = second compound 0.1 µM, first compound 0.949 µM
[26] = second compound 0.1 µM, first compound 3 µM
[27] = second compound 0.316 µM, first compound 0.00949 µM
[28] = second compound 0.316 µM, first compound 0.03 µM
[29] = second compound 0.316 µM, first compound 0.0949 µM
[30] = second compound 0.316 µM, first compound 0.3 µM
[31] = second compound 0.316 µM, first compound 0.949 µM
[32] = second compound 0.316 µM, first compound 3 µM
[33] = second compound 1 µM, first compound 0.00949 µM
[34] = second compound 1 µM, first compound 0.03 µM
[35] = second compound 1 µM, first compound 0.0949 µM
[36] = second compound 1 µM, first compound 0.3 µM
[37] = second compound 1 µM, first compound 0.949 µM
[38] = second compound 1 µM, first compound 3 µM
[39] = second compound 3.16 µM, first compound 0.00949 µM
[40] = second compound 3.16 µM, first compound 0.03 µM
[41] = second compound 3.16 µM, first compound 0.0949 µM
[42] = second compound 3.16 µM, first compound 0.3 µM
[43] = second compound 3.16 µM, first compound 0.949 µM
[44] = second compound 3.16 µM, first compound 3 µM
[45] = second compound 10 µM, first compound 0.00949 µM
[46] = second compound 10 µM, first compound 0.03 µM
[47] = second compound 10 µM, first compound 0.0949 µM
[48] = second compound 10 µM, first compound 0.3 µM
[49] = second compound 10 µM, first compound 0.949 µM
[50] = second compound 10 µM, first compound 3 µM
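For viability, T/C in this document: spheroids mix tumor cells with HUVEC endothelium and human MSC stroma; luminescence taken as viability surrogate after a week of drug exposure.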

SMILES: CCN(c1cc(-c2ccc(CN3CCOCC3)cc2)cc(C(=O)NCc2c(C)cc(C)[nH]c2=O)c1C)C1CCOCC1 + CC(CO)NC(=O)c1cc(-c2ccc(Cl)cc2)nn(-c2cnn(C)c2)c1=O
IC50 (second compound 0.1 µM): > 3000 nM
IC50 (second compound 0.316 µM): > 3000 nM
IC50 (second compound 1 µM): > 3000 nM
IC50 (second compound 3.16 µM): > 3000 nM
IC50 (second compound 10 µM): > 3000 nM
viability, T/C [21]: 121%
viability, T/C [22]: 110%
viability, T/C [23]: 102%
viability, T/C [24]: 80.8%
viability, T/C [25]: 81.1%
viability, T/C [26]: 102%
viability, T/C [27]: 103%
viability, T/C [28]: 103%
viability, T/C [29]: 97.4%
viability, T/C [30]: 101%
viability, T/C [31]: 87.6%
viability, T/C [32]: 86.5%
viability, T/C [33]: 105%
viability, T/C [34]: 93.7%
viability, T/C [35]: 129%
viability, T/C [36]: 94.5%
viability, T/C [37]: 72.5%
viability, T/C [38]: 82.6%
viability, T/C [39]: 90.6%
viability, T/C [40]: 79.3%
viability, T/C [41]: 99.1%
viability, T/C [42]: 86.7%
viability, T/C [43]: 74%
viability, T/C [44]: 91%
viability, T/C [45]: 91%
viability, T/C [46]: 96.8%
viability, T/C [47]: 84.9%
viability, T/C [48]: 77.4%
viability, T/C [49]: 74.4%
viability, T/C [50]: 60.7%

SMILES: Nc1ncn(C2CC(O)C(CO)S2)c(=O)n1 (stereo not given) + CC(CO)NC(=O)c1cc(-c2ccc(Cl)cc2)nn(-c2cnn(C)c2)c1=O
IC50 (second compound 0.1 µM): > 300 nM
IC50 (second compound 0.316 µM): > 300 nM
IC50 (second compound 1 µM): > 300 nM
IC50 (second compound 3.16 µM): > 300 nM
IC50 (second compound 10 µM): > 300 nM
viability, T/C (second compound 0.1 µM, first compound 0.000949 µM): 79.4%
viability, T/C (second compound 0.1 µM, first compound 0.003 µM): 89.4%
viability, T/C [21]: 97.9%
viability, T/C [22]: 89.9%
viability, T/C [23]: 72.6%
viability, T/C [24]: 71.2%
viability, T/C (second compound 0.316 µM, first compound 0.000949 µM): 115%
viability, T/C (second compound 0.316 µM, first compound 0.003 µM): 107%
viability, T/C [27]: 107%
viability, T/C [28]: 116%
viability, T/C [29]: 94.1%
viability, T/C [30]: 84.4%
viability, T/C (second compound 1 µM, first compound 0.000949 µM): 107%
viability, T/C (second compound 1 µM, first compound 0.003 µM): 107%
viability, T/C [33]: 106%
viability, T/C [34]: 108%
viability, T/C [35]: 73%
viability, T/C [36]: 99.3%
viability, T/C (second compound 3.16 µM, first compound 0.000949 µM): 102%
viability, T/C (second compound 3.16 µM, first compound 0.003 µM): 116%
viability, T/C [39]: 141%
viability, T/C [40]: 111%
viability, T/C [41]: 86.1%
viability, T/C [42]: 73.1%
viability, T/C (second compound 10 µM, first compound 0.000949 µM): 73.8%
viability, T/C (second compound 10 µM, first compound 0.003 µM): 81.3%
viability, T/C [45]: 102%
viability, T/C [46]: 76.9%
viability, T/C [47]: 88.3%
viability, T/C [48]: 81.5%

SMILES: O=C(C=Cn1cnc(-c2cc(C(F)(F)F)cc(C(F)(F)F)c2)n1)NNc1cnccn1 + CC(CO)NC(=O)c1cc(-c2ccc(Cl)cc2)nn(-c2cnn(C)c2)c1=O
IC50 (second compound 0.1 µM): 81.6 nM
IC50 (second compound 0.316 µM): 29.4 nM
IC50 (second compound 1 µM): 23.3 nM
IC50 (second compound 3.16 µM): 21.8 nM
IC50 (second compound 10 µM): 12.5 nM
viability, T/C [21]: 59.2%
viability, T/C [22]: 58.6%
viability, T/C [23]: 42.9%
viability, T/C [24]: 45.7%
viability, T/C [25]: 39.4%
viability, T/C [26]: 29.1%
viability, T/C [27]: 85.6%
viability, T/C [28]: 44.6%
viability, T/C [29]: 43.8%
viability, T/C [30]: 38%
viability, T/C [31]: 37.7%
viability, T/C [32]: 23.9%
viability, T/C [33]: 62.8%
viability, T/C [34]: 40.3%
viability, T/C [35]: 38.9%
viability, T/C [36]: 38.8%
viability, T/C [37]: 34.6%
viability, T/C [38]: 21.7%
viability, T/C [39]: 58.9%
viability, T/C [40]: 38.7%
viability, T/C [41]: 50.4%
viability, T/C [42]: 29.4%
viability, T/C [43]: 27.6%
viability, T/C [44]: 25.6%
viability, T/C [45]: 52.7%
viability, T/C [46]: 42.1%
viability, T/C [47]: 27.5%
viability, T/C [48]: 26.7%
viability, T/C [49]: 22.4%
viability, T/C [50]: 17.7%

Further lines, with some results ahead:

IC50 (second compound 0.1 µM): 88.1 nM
IC50 (second compound 0.316 µM): 106 nM
IC50 (second compound 1 µM): 81.3 nM
IC50 (second compound 3.16 µM): 67.7 nM
IC50 (second compound 10 µM): 37.8 nM
SMILES: CC1COCCN1c1cc(-c2ccnn2C)c2ccnc(-c3ccn[nH]3)c2n1 (stereo not given) + CC(CO)NC(=O)c1cc(-c2ccc(Cl)cc2)nn(-c2cnn(C)c2)c1=O
viability, T/C (second compound 0.1 µM, first compound 0.00316 µM): 91.6%
viability, T/C (second compound 0.1 µM, first compound 0.01 µM): 121%
viability, T/C [1]: 98.3%
viability, T/C [2]: 44.3%
viability, T/C [3]: 11.2%
viability, T/C [4]: 14.6%
viability, T/C (second compound 0.316 µM, first compound 0.00316 µM): 141%
viability, T/C (second compound 0.316 µM, first compound 0.01 µM): 126%
viability, T/C [5]: 110%
viability, T/C [6]: 54.5%
viability, T/C [7]: 8.67%
viability, T/C [8]: 13.1%
viability, T/C (second compound 1 µM, first compound 0.00316 µM): 93%
viability, T/C (second compound 1 µM, first compound 0.01 µM): 115%
viability, T/C [9]: 120%
viability, T/C [10]: 37%
viability, T/C [11]: 8.65%
viability, T/C [12]: 13.6%
viability, T/C (second compound 3.16 µM, first compound 0.00316 µM): 115%
viability, T/C (second compound 3.16 µM, first compound 0.01 µM): 102%
viability, T/C [13]: 94.4%
viability, T/C [14]: 27.6%
viability, T/C [15]: 8.07%
viability, T/C [16]: 12.1%
viability, T/C (second compound 10 µM, first compound 0.00316 µM): 93.5%
viability, T/C (second compound 10 µM, first compound 0.01 µM): 89.5%
viability, T/C [17]: 55.8%
viability, T/C [18]: 17.8%
viability, T/C [19]: 7.29%
viability, T/C [20]: 12.2%

IC50 (second compound 0.1 µM): 2440 nM
IC50 (second compound 0.316 µM): 2220 nM
IC50 (second compound 1 µM): 2270 nM
IC50 (second compound 3.16 µM): 2250 nM
IC50 (second compound 10 µM): 1810 nM
SMILES: CC1COCCN1c1cc(C2(S(C)(=N)=O)CC2)nc(-c2ccnc3[nH]ccc23)n1 (stereo not given) + CC(CO)NC(=O)c1cc(-c2ccc(Cl)cc2)nn(-c2cnn(C)c2)c1=O
viability, T/C [1]: 114%
viability, T/C [2]: 147%
viability, T/C [3]: 125%
viability, T/C [4]: 111%
viability, T/C (second compound 0.1 µM, first compound 3.16 µM): 32.3%
viability, T/C (second compound 0.1 µM, first compound 10 µM): 17.2%
viability, T/C [5]: 110%
viability, T/C [6]: 106%
viability, T/C [7]: 130%
viability, T/C [8]: 113%
viability, T/C (second compound 0.316 µM, first compound 3.16 µM): 21.8%
viability, T/C (second compound 0.316 µM, first compound 10 µM): 14.1%
viability, T/C [9]: 113%
viability, T/C [10]: 108%
viability, T/C [11]: 103%
viability, T/C [12]: 125%
viability, T/C (second compound 1 µM, first compound 3.16 µM): 24.8%
viability, T/C (second compound 1 µM, first compound 10 µM): 12.7%
viability, T/C [13]: 114%
viability, T/C [14]: 117%
viability, T/C [15]: 146%
viability, T/C [16]: 105%
viability, T/C (second compound 3.16 µM, first compound 3.16 µM): 20.6%
viability, T/C (second compound 3.16 µM, first compound 10 µM): 12.3%
viability, T/C [17]: 89.2%
viability, T/C [18]: 123%
viability, T/C [19]: 110%
viability, T/C [20]: 85%
viability, T/C (second compound 10 µM, first compound 3.16 µM): 17.3%
viability, T/C (second compound 10 µM, first compound 10 µM): 11.8%
